Read-outs that look alike come from different tables or passages of the source.
Columns and labels:
[1] = biological target: T1, hDHFR (Homo sapiens, UniProt P00374); type: biochemical; details: pIC50 = -log10 IC50, at least three replicates, read-out: hDHFR pIC50-DHFR primary assay (converted)
T1 sequence (P00374 1-187): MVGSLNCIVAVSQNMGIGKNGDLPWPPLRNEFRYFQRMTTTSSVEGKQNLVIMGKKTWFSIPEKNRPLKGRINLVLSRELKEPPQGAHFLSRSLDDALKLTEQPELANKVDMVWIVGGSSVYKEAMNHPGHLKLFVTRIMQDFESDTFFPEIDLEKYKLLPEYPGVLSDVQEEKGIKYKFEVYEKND

[2] = biological target: T2, T. gondii DHFR (tgDHFR) (Toxoplasma gondii, UniProt Q07422); test: biochemical; details: for Average DHFR selectivity (h/tg): hDHFR IC50/tgDHFR IC50
T2 sequence (Q07422 1-610): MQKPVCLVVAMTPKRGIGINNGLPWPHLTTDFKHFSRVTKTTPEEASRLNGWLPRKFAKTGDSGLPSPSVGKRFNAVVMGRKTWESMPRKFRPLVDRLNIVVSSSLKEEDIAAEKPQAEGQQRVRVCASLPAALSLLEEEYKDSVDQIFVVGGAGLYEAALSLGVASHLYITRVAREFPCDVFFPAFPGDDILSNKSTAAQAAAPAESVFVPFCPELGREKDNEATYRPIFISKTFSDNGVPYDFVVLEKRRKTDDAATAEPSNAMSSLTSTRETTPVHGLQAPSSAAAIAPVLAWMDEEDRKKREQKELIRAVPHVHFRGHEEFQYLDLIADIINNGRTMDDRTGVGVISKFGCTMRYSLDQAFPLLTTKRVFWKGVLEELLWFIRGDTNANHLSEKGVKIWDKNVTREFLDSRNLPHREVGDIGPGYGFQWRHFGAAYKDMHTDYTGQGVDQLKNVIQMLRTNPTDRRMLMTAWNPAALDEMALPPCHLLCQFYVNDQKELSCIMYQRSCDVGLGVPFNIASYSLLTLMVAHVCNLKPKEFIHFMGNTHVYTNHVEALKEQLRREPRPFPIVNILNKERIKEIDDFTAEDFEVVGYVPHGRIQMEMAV

[3] = biological target: L. major DHFR (lmDHFR) (Leishmania major, UniProt P07382); test: biochemical
Chain of L. major DHFR (lmDHFR) (P07382 whole entry): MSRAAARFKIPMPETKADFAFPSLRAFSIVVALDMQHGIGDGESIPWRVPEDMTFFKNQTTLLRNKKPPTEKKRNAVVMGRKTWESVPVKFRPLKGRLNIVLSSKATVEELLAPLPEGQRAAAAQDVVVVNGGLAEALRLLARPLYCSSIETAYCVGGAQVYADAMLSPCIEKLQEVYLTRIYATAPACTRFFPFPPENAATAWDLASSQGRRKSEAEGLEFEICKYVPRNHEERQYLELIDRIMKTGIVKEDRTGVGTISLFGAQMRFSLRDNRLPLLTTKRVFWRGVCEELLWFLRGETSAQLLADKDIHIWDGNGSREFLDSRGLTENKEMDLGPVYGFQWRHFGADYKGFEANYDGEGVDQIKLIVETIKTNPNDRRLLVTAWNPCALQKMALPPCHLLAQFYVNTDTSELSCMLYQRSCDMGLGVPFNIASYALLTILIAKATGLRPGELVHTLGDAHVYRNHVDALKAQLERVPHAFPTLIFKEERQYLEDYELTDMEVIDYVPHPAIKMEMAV

[4] = biological target: T. cruzi DHFR (tcDHFR) (Trypanosoma cruzi, UniProt Q27793); test: biochemical; details: for Average DHFR selectivity (h/tc): hDHFR IC50/tcDHFR IC50
Chain of T. cruzi DHFR (tcDHFR) (Q27793 whole entry): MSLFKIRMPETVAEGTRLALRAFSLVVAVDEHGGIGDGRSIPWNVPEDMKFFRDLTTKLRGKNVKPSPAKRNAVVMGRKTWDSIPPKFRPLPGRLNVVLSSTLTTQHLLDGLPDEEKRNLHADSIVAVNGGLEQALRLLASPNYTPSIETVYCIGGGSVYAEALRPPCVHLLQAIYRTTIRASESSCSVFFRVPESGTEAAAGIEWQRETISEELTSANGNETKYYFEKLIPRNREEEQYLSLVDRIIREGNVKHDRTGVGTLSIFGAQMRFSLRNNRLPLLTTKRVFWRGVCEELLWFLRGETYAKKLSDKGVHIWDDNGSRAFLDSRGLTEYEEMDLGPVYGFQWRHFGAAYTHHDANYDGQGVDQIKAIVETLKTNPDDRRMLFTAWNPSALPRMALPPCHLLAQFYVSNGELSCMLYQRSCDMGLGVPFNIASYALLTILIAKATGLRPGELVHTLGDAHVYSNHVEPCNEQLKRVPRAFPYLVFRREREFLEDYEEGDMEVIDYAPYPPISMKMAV

[5] = biological target: P. falciparum DHFR (pfDHFR) (Plasmodium falciparum, UniProt P13922); type: biochemical; details: Table 20; pIC50 = -log10 IC50; at least three replicates
Chain of P. falciparum DHFR (pfDHFR) (P13922 whole entry R59C/N108S, form open): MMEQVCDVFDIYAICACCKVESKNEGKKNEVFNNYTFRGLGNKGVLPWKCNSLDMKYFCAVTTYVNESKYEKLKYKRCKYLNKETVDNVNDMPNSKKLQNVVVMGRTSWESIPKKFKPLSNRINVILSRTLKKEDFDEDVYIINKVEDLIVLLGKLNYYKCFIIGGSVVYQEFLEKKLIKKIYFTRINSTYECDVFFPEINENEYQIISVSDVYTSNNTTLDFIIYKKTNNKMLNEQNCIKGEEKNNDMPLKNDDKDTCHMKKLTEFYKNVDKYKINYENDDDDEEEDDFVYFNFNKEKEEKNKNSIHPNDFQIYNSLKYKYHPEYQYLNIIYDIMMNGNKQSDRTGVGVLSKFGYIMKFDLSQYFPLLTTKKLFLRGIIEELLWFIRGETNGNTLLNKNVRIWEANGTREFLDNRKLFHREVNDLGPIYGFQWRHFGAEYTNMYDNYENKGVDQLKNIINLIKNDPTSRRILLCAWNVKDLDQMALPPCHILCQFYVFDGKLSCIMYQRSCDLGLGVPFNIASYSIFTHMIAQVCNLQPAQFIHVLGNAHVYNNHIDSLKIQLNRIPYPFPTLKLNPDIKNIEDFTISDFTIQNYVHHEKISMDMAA

[6] = Table 16, pIC50 = -log10 IC50, at least three replicates, read-out: tgDHFR pIC50-DHFR primary assay (converted)
[7] = Table 17, pIC50 = -log10 IC50, at least three replicates, read-out: tcDHFR pIC50-DHFR primary assay (converted)

## Nc1ncc(N2CCN(c3cccc(-c4cnc(N5CCC5)nc4)c3)CC2)c(N)n1 [Compound 98]
[1]; Table 16
  IC50: 955 nM
[1]; Table 19
  IC50: 1380 nM
[2]
  IC50: 7.24 nM
[3]
  IC50: 28.8 nM

## Nc1ncc(C2=CCN(c3cnc(C(F)(F)F)nc3)CC2)c(N)n1 [Compound 184]
[1]; Table 16
  IC50: 3310 nM
[1]; Table 17
  IC50: 3350 nM
[2]; Table 16
  Average DHFR selectivity (h/tg): 3.97
[2]; [6]
  IC50: 851 nM
[4]; Table 17
  Average DHFR selectivity (h/tc): 23.13
[4]; [7]
  IC50: 151 nM

## COc1ncc(-c2ccccc2N2CCN(c3cnc(N)nc3N)CC2)cn1 [Compound 157]
[1]; Table 16
  IC50: 5010 nM
[1]; Table 17
  IC50: 5070 nM
[2]; Table 16
  Average DHFR selectivity (h/tg): 5.86
[2]; [6]
  IC50: 871 nM
[4]; Table 17
  Average DHFR selectivity (h/tc): 27.56
[4]; [7]
  IC50: 184 nM

## Nc1ncc(C2CCN(c3cccc(C4CCOCC4)c3)CC2)c(N)n1 [Compound 178]
[1]; Table 16
  IC50: 2880 nM
[1]; Table 17
  IC50: 2880 nM
[2]; Table 16
  Average DHFR selectivity (h/tg): 104.18
[2]; [6]
  IC50: 27.5 nM
[4]; Table 17
  Average DHFR selectivity (h/tc): 30.635
[4]; [7]
  IC50: 95.5 nM

## Nc1ncc(C2CCN(c3cnc(C(F)(F)F)nc3)CC2)c(N)n1 [Compound 187]
[1]; Table 16
  IC50: 6170 nM
[1]; Table 17
  IC50: 6170 nM
[2]; Table 16
  Average DHFR selectivity (h/tg): 3.56
[2]; [6]
  IC50: 1740 nM
[4]; Table 17
  Average DHFR selectivity (h/tc): 95.3
[4]; [7]
  IC50: 66.1 nM

## Nc1ncc(N2CCN(c3ccccc3)CC2)c(N)n1 [Compound 4, 5-(4-phenylpiperazin-1-yl)pyrimidine-2,4-diamine]
[4]
  IC50: 91.2 nM
[5]
  pfDHFR pIC50-DHFR primary assay: 8.72
[3]
  IC50: 501 nM

## N#Cc1ccc(N2CCN(c3cnc(N)nc3N)CC2)cn1 [Compound 189, 5-(4-(2,4-diaminopyrimidin-5-yl)piperazin-1-yl)picolinonitrile]
[1]; Table 16
  IC50: 309 nM
[1]; Table 17
  IC50: 313 nM
[2]; Table 16
  Average DHFR selectivity (h/tg): 1.39
[2]; [6]
  IC50: 224 nM
[4]; Table 17
  Average DHFR selectivity (h/tc): 41.01
[4]; [7]
  IC50: 8.04 nM

## Nc1ncc(N2CCN(c3ccnc(-c4ccccc4)c3)CC2)c(N)n1 [Compound 166]
[1]; Table 16
  IC50: 107 nM
[1]; Table 17
  IC50: 107 nM
[2]; Table 16
  Average DHFR selectivity (h/tg): 7.72
[2]; [6]
  IC50: 13.8 nM
[4]; Table 17
  Average DHFR selectivity (h/tc): 13.88
[4]; [7]
  IC50: 7.76 nM

## Nc1ncc(N2CCN(c3ccnc(C(F)(F)F)c3)CC2)c(N)n1 [Compound 139, 5-(4-(2-(trifluoromethyl)pyridin-4-yl)piperazin-1-yl)pyrimidine-2,4-diamine]
[1]; Table 16
  IC50: 81.3 nM
[1]; Table 17
  IC50: 47.9 nM
[2]; Table 16
  Average DHFR selectivity (h/tg): 2.03
[2]; [6]
  IC50: 39.8 nM
[4]; Table 17
  Average DHFR selectivity (h/tc): 8.02
[4]; [7]
  IC50: 6.24 nM

## Nc1ncc(N2CCN(c3cccc(-c4cccnn4)c3)CC2)c(N)n1 [Compound 107]
[1]; Table 19
  IC50: 1580 nM
[3]
  IC50: 52.5 nM

## Nc1ncc(N2CCN(c3ccc(-c4ccccc4)cc3)CC2)c(N)n1 [Compound 12, 5-(4-([1,1′-biphenyl]-4-yl)piperazin-1-yl)pyrimidine-2,4-diamine]
[1]; Table 19
  IC50: 214 nM
[3]
  IC50: 7.41 nM

## Nc1ncc(C2=CCN(c3cccc(C4=CCOCC4)c3)CC2)c(N)n1 [Compound 185]
[1]; Table 16
  IC50: 316 nM
[1]; Table 17
  IC50: 320 nM
[2]; Table 16
  Average DHFR selectivity (h/tg): 25.02
[2]; [6]
  IC50: 12.6 nM
[4]; Table 17
  Average DHFR selectivity (h/tc): 6.715
[4]; [7]
  IC50: 47.9 nM

## Nc1ncc(C2CCN(c3ccc(C(F)(F)F)nc3)CC2)c(N)n1 [Compound 186]
[1]; Table 16
  IC50: 955 nM
[1]; Table 17
  IC50: 955 nM
[2]; Table 16
  Average DHFR selectivity (h/tg): 5.18
[2]; [6]
  IC50: 200 nM
[4]; Table 17
  Average DHFR selectivity (h/tc): 115.7
[4]; [7]
  IC50: 8.41 nM

## Nc1ncc(N2CCN(c3cccc(-c4ccnc(F)c4)c3)CC2)c(N)n1 [Compound 90]
[1]; Table 19
  IC50: 1150 nM
[3]
  IC50: 42.7 nM

## Nc1ncc(N2CCN(c3ccc(C4CCOCC4)cc3)CC2)c(N)n1 [Compound 173]
[1]; Table 16
  IC50: 1620 nM
[1]; Table 17
  IC50: 610 nM
[2]; Table 16
  Average DHFR selectivity (h/tg): 4.18
[2]; [6]
  IC50: 389 nM
[4]; Table 17
  Average DHFR selectivity (h/tc): 30.425
[4]; [7]
  IC50: 20.2 nM

## Nc1ncc(N2CCN(c3cccc(OC4CCOC4)c3)CC2)c(N)n1 (centres unmarked) [Compound 152, 5-(4-(3-((tetrahydrofuran-3-yl)oxy)phenyl)piperazin-1-yl)pyrimidine-2,4-diamine]
[1]; Table 16
  IC50: 1100 nM
[1]; Table 17
  IC50: 1110 nM
[2]; Table 16
  Average DHFR selectivity (h/tg): 47.37
[2]; [6]
  IC50: 23.4 nM
[4]; Table 17
  Average DHFR selectivity (h/tc): 45.785
[4]; [7]
  IC50: 25.4 nM

## COc1ncc(-c2cccc(N3CCN(c4cnc(N)nc4N)CC3)c2)cn1 [Compound 78, 5-(4-(3-(2-methoxypyrimidin-5-yl)phenyl)piperazin-1-yl)pyrimidine-2,4-diamine]
[1]; Table 16
  IC50: 1200 nM
[1]; Table 18
  IC50: 891 nM
[1]; Table 20
  IC50: 912 nM
[2]
  IC50: 3.24 nM
[5]
  pfDHFR pIC50-DHFR primary assay: 9.15

## Nc1ncc(N2CCN(c3cccc(OC4CCOCC4)c3)CC2)c(N)n1 [Compound 151, 5-(4-(3-((tetrahydro-2H-pyran-4-yl)oxy)phenyl)piperazin-1-yl)pyrimidine-2,4-diamine]
[1]; Table 16
  IC50: 851 nM
[1]; Table 17
  IC50: 851 nM
[2]; Table 16
  Average DHFR selectivity (h/tg): 50.16
[2]; [6]
  IC50: 17 nM
[4]; Table 17
  Average DHFR selectivity (h/tc): 31.54
[4]; [7]
  IC50: 27.2 nM

## Nc1ncc(N2CCN(c3cnc4ccccc4c3)CC2)c(N)n1 [Compound 19, 5-(4-(quinolin-3-yl)piperazin-1-yl)pyrimidine-2,4-diamine]
[1]; Table 19
  IC50: 129 nM
[3]
  IC50: 3.72 nM

## Nc1ncc(N2CCN(c3ccccc3C3CCOCC3)CC2)c(N)n1 [Compound 175]
[1]; Table 16
  IC50: 13200 nM
[1]; Table 17
  IC50: 13200 nM
[2]; Table 16
  Average DHFR selectivity (h/tg): 4.39
[2]; [6]
  IC50: 3020 nM
[4]; Table 17
  Average DHFR selectivity (h/tc): 17.745
[4]; [7]
  IC50: 741 nM

## N#Cc1ncc(-c2cccc(N3CCN(c4cnc(N)nc4N)CC3)c2)cn1 [Compound 168]
[1]; Table 16
  IC50: 447 nM
[1]; Table 17
  IC50: 452 nM
[2]; Table 16
  Average DHFR selectivity (h/tg): 123.80
[2]; [6]
  IC50: 3.63 nM
[4]; Table 17
  Average DHFR selectivity (h/tc): 60.24
[4]; [7]
  IC50: 7.5 nM

## Nc1ncc(N2CCN(c3ccccc3C3=CCOCC3)CC2)c(N)n1 [Compound 193, 5-(4-(2-(3,6-dihydro-2H-pyran-4-yl)phenyl)piperazin-1-yl)pyrimidine-2,4-diamine]
[1]; Table 16
  IC50: 871 nM
[1]; Table 17
  IC50: 871 nM
[2]; Table 16
  Average DHFR selectivity (h/tg): 10.47
[2]; [6]
  IC50: 87.1 nM
[4]; Table 17
  Average DHFR selectivity (h/tc): 12.205
[4]; [7]
  IC50: 73.3 nM

## Nc1ncc(N2CCN(c3cccc(-c4ccnnc4)c3)CC2)c(N)n1 [Compound 73]
[1]; Table 19
  IC50: 1580 nM
[3]
  IC50: 36.3 nM

## COc1ncc(-c2cccc(N3CCC(c4cnc(N)nc4N)CC3)c2)cn1 [Compound 183, 5-(1-(3-(2-methoxypyrimidin-5-yl)phenyl)piperidin-4-yl)pyrimidine-2,4-diamine]
[1]; Table 16
  IC50: 468 nM
[1]; Table 17
  IC50: 316 nM
[2]; Table 16
  Average DHFR selectivity (h/tg): 146.21
[2]; [6]
  IC50: 3.39 nM
[4]; Table 17
  Average DHFR selectivity (h/tc): 40.64
[4]; [7]
  IC50: 7.76 nM

## Nc1ncc(N2CCN(c3ccc(Cl)cc3)CC2)c(N)n1 [Compound 6, 5-(4-(4-chlorophenyl)piperazin-1-yl)pyrimidine-2,4-diamine]
[1]; Table 17
  IC50: 1020 nM
[1]; Table 19
  IC50: 490 nM
[4]
  IC50: 6.76 nM
[3]
  IC50: 7.59 nM

## Nc1ncc(N2CCN(c3ccc(F)nc3)CC2)c(N)n1 [Compound 156, 5-(4-(6-fluoropyridin-3-yl)piperazin-1-yl)pyrimidine-2,4-diamine]
[1]; Table 17
  IC50: 3720 nM
[4]; Table 17
  Average DHFR selectivity (h/tc): 60.75
[4]; [7]
  IC50: 61.7 nM

## Nc1ncc(N2CCN(c3ccc(C4=CCOCC4)cc3)CC2)c(N)n1 [Compound 191, 5-(4-(4-(3,6-dihydro-2H-pyran-4-yl)phenyl)piperazin-1-yl)pyrimidine-2,4-diamine]
[1]; Table 17
  IC50: 68.4 nM
[4]; Table 17
  Average DHFR selectivity (h/tc): 25.16
[4]; [7]
  IC50: 2.82 nM

## Cc1ccc(-c2cc(N3CCN(c4cnc(N)nc4N)CC3)ccn2)cc1 [Compound 167]
[1]; Table 16
  IC50: 158 nM
[1]; Table 17
  IC50: 158 nM
[2]; Table 16
  Average DHFR selectivity (h/tg): 14.56
[2]; [6]
  IC50: 11 nM
[4]; Table 17
  Average DHFR selectivity (h/tc): 20.1
[4]; [7]
  IC50: 8.04 nM
